Laboratory results: ChEMBL document CHEMBL2046320, “Bisubstrate analog inhibitors of 6-hydroxymethyl-7,8-dihydropterin pyrophosphokinase: new lead exhibits a distinct binding mode” (Bioorg Med Chem, 2012)

Tests used:
[1] = molecular target: T1, 2-amino-4-hydroxy-6-hydroxymethyldihydropteridine pyrophosphokinase (Escherichia coli (strain K12), UniProt P26281); assay: Inhibition of Escherichia coli HPPK using [alpha-33P]ATP after 30 mins
T1 sequence (P26281 whole entry): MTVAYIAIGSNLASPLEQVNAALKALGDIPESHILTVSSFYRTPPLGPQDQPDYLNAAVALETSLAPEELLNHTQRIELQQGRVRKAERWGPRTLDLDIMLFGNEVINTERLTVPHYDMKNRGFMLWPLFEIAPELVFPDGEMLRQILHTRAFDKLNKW

[2] = molecular target: T1, 2-amino-4-hydroxy-6-hydroxymethyldihydropteridine pyrophosphokinase; assay: Binding affinity to Escherichia coli HPPK at pH 8.3 by fluorometric titration

CC1(C)Nc2nc(N)[nH]c(=O)c2N=C1C(=O)NCC(=O)NCCS(=O)(=O)C[C@H]1O[C@@H](n2cnc3c(N)ncnc32)[C@H](O)[C@@H]1O showed an IC50 [1] of 9.53 µM and a Kd [2] of 4.16 µM.
